How the values were obtained:
αllbβ3 integrin = target: T1, αllbβ3 integrin (Homo sapiens, UniProt P05106+P08514); assay: ELISA: inhibition of binding of αllbβ3 integrin membrane preparation to coated extracellular matrix protein; settings: human platelet membrane preparation
T1 construct: Human platelet membrane preparations were used as a source of αllbβ3 integrin; from tissue; host or cells: human platelets (membrane preparation)
Method: (§1) An ELISA assay based on the published method of Bethert et al., 2000, J Biol Chem 275, 33308-23, was employed.
(§2) Briefly, appropriate microtitre plates were coated with either Fibrinogen or Vitronectin (10 μg/well). These extracellular matrix proteins contain the RGD amino acid sequence that is recognized by αllbβ3 integrin. Human platelet membrane preparations were used as a source of αllbβ3 integrin and the cell line WM-115 was used as a source of αVβ3 integrin. Inhibition of the binding of αllbβ3 integrin containing membrane preparations to the extracellular matrix protein was determined by pre-incubating the platelet membrane preparation with test or control compounds. The binding of the αllbβ3 integrin containing membrane was the quantitated by using a rabbit anti-integrinβ3 antibody, a horse radish peroxidase coupled second antibody and a standard colorimetric detection system.

αVβ3 integrin = target: T2, αVβ3 integrin (Homo sapiens, UniProt P05106+P06756); assay: ELISA: inhibition of binding of αVβ3 integrin (source WM-115 cell line) to coated extracellular matrix protein; settings: WM-115 cell line as integrin source
T2 construct: the cell line WM-115 was used as a source of αVβ3 integrin; endogenous in cells; host or cells: WM-115 cell line
T2 sequence (P06756 31-889 limits assumed): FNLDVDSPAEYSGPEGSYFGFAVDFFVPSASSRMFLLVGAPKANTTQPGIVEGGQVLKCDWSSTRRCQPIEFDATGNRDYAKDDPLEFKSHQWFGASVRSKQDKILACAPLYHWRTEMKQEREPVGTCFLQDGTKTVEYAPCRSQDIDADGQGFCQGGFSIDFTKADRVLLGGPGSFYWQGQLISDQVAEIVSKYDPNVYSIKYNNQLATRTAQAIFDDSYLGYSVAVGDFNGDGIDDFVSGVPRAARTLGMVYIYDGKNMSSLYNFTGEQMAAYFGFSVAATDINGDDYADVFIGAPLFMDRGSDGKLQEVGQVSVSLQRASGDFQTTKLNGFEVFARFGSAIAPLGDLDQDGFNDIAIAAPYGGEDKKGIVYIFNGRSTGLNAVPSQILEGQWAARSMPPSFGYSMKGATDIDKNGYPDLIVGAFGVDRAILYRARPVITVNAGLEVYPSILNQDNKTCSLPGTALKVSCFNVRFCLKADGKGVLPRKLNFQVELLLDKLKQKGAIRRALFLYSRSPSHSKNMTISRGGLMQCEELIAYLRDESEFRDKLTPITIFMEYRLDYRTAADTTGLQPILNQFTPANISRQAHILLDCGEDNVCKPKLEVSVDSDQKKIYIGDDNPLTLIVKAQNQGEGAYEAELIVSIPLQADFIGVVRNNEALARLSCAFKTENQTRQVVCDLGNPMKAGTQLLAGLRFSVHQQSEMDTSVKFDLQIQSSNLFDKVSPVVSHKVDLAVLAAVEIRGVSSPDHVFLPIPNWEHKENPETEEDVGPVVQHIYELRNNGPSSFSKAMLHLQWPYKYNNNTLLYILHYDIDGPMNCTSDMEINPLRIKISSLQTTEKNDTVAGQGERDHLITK
T2 sequence (P06756 891-1048 partner limits assumed): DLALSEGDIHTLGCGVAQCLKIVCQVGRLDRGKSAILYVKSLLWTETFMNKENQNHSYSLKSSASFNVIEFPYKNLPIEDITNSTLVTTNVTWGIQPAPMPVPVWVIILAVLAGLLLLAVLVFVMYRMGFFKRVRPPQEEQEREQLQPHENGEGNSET
T2 sequence (P05106 27-788): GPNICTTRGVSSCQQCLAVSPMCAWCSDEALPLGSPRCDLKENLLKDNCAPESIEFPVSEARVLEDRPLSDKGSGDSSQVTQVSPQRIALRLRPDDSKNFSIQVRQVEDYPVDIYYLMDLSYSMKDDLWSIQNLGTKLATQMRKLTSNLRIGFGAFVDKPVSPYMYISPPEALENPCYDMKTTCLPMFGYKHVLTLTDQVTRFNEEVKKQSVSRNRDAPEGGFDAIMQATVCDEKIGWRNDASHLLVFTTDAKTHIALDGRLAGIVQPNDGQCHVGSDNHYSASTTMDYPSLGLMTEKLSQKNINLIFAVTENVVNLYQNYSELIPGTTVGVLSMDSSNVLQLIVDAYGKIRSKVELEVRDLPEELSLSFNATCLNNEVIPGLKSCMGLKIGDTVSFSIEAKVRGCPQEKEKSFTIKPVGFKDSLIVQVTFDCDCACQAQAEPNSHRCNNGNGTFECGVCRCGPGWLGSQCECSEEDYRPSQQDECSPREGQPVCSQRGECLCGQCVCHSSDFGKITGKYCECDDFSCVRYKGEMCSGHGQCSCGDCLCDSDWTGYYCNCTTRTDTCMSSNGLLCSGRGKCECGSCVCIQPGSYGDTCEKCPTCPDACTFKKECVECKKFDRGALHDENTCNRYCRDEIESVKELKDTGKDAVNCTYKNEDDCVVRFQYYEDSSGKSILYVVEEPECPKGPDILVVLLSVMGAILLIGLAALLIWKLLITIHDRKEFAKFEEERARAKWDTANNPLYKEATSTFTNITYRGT
Method: as §1, §2

T1 sequence (P08514 32-887 limits assumed): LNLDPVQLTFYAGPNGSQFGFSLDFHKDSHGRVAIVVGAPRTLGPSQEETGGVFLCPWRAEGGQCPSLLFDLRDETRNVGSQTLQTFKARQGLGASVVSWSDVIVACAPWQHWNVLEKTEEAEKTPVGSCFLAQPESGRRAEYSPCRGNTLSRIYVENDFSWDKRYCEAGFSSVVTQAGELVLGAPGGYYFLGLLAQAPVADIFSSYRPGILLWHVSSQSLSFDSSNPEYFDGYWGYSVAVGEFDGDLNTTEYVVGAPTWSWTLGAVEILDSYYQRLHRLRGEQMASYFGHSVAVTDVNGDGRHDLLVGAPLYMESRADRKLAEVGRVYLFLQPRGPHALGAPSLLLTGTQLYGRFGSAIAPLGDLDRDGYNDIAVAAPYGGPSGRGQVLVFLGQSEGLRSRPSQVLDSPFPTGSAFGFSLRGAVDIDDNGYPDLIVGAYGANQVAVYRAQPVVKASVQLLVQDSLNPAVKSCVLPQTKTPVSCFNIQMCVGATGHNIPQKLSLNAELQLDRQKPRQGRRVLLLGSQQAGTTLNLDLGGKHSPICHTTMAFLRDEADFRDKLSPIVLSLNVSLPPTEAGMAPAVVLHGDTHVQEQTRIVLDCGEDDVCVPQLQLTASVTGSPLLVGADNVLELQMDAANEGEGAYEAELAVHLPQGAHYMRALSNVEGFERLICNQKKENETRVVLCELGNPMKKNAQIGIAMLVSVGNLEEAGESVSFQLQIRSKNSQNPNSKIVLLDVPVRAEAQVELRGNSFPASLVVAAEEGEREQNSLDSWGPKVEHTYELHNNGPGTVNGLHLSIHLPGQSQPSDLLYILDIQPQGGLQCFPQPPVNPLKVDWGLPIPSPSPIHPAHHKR
T1 sequence (P08514 891-1039 partner limits assumed): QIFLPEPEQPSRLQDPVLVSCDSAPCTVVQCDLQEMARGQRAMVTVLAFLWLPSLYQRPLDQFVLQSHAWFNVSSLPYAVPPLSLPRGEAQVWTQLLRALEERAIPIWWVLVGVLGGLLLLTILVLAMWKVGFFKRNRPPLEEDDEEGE
T1 sequence (P05106 27-788): as the sequence (P05106 27-788) above

Compound	INHIBITION @ 250 uM RECEPTOR allBb3 SUBSTRATE FIBRINOGEN (αllbβ3 integrin)	INHIBITION 250 uM RECEPTOR allBb3 SUBSTRATE VITRONECTIN (αllbβ3 integrin)	INHIBITION 250 uM RECEPTOR aVb3 SUBSTRATE FIBRINOGEN (αVβ3 integrin)
CCOC1O[C@H](COCc2cccc(N)c2)[C@@H](O)[C@H](OCc2ccccc2)[C@H]1NC(=O)c1ccc(C(=O)O)cc1 (single isomer, unassigned) [Compound 37]	+ (36% to 60% inhibition at 250 micromolar)	+++ (81% to 100% inhibition at 250 micromolar)	+++ (81% to 100% inhibition at 250 micromolar)
COC1OC(COCc2ccccc2)C(O)C(OCc2cccc(N)c2)C1NC(=O)CCC(=O)O (single isomer, unassigned) [Compound 21]	+++ (81% to 100% inhibition at 250 micromolar)		+++ (81% to 100% inhibition at 250 micromolar)
COC1OC(COCc2cccc(N)c2)C(O)C(OCc2ccc(Br)cc2)C1NC(=O)c1ccc(C(=O)O)cc1 (single isomer, unassigned) [Compound 3]	+ (36% to 60% inhibition at 250 micromolar)	+++ (81% to 100% inhibition at 250 micromolar)	+ (36% to 60% inhibition at 250 micromolar)
CCOC1OC(COCc2ccc(Br)cc2)C(O)C(OCc2cccc(N)c2)C1NC(=O)c1ccc(C(=O)O)cc1 (single isomer, unassigned) [Compound 72]	+ (36% to 60% inhibition at 250 micromolar)	+++ (81% to 100% inhibition at 250 micromolar)	+++ (81% to 100% inhibition at 250 micromolar)
CCOC1O[C@H](COCc2ccc(C(=O)O)cc2)[C@@H](O)[C@H](OCc2ccc(Br)cc2)[C@H]1NC(=O)c1cccc(N)c1 (single isomer, unassigned) [Compound 41]	+ (36% to 60% inhibition at 250 micromolar)	++ (61% to 80% inhibition at 250 micromolar)	+ (36% to 60% inhibition at 250 micromolar)
Nc1cccc(COC2C(O)C(COCc3ccccc3)OC(O)C2NC(=O)c2ccc(C(=O)O)cc2)c1 (single isomer, unassigned) [Compound 70]	+ (36% to 60% inhibition at 250 micromolar)	+++ (81% to 100% inhibition at 250 micromolar)	+++ (81% to 100% inhibition at 250 micromolar)
COC1OC(COCc2ccc(Br)cc2)C(O)C(OCc2cccc(N)c2)C1NC(=O)CCC(=O)O (single isomer, unassigned) [Compound 24]	+ (36% to 60% inhibition at 250 micromolar)	+++ (81% to 100% inhibition at 250 micromolar)	++ (61% to 80% inhibition at 250 micromolar)
CC(=O)NC1C(OCc2ccccc2)OC(COCc2cccc(N)c2)C(O)C1OCC(=O)O (single isomer, unassigned) [Compound 96]	− (0% to 35% inhibition at 250 micromolar)	+ (36% to 60% inhibition at 250 micromolar)	− (0% to 35% inhibition at 250 micromolar)
CCOC1O[C@H](COCc2ccc(Br)cc2)[C@@H](O)[C@H](OCC(=O)O)[C@H]1NC(=O)CCNC(=N)N (single isomer, unassigned) [Compound 52]	+ (36% to 60% inhibition at 250 micromolar)	++ (61% to 80% inhibition at 250 micromolar)	+++ (81% to 100% inhibition at 250 micromolar)
Nc1cccc(COC2C(O)C(COCc3ccc(C(=O)O)cc3)OC(O)C2NC(=O)c2ccc(Cl)cc2)c1 (single isomer, unassigned) [Compound 82]	++ (61% to 80% inhibition at 250 micromolar)	+ (36% to 60% inhibition at 250 micromolar)	++ (61% to 80% inhibition at 250 micromolar)
CCOC1O[C@H](COCc2ccccc2)[C@@H](O)[C@H](OCC(=O)O)[C@H]1NC(=O)CCNC(=N)N (single isomer, unassigned) [Compound 48]	++ (61% to 80% inhibition at 250 micromolar)	+++ (81% to 100% inhibition at 250 micromolar)	+++ (81% to 100% inhibition at 250 micromolar)
COC1OC(COCc2cccc(N)c2)C(O)C(OCC(=O)O)C1NC(=O)c1ccc(Cl)cc1 (single isomer, unassigned) [Compound 9]	+ (36% to 60% inhibition at 250 micromolar)	+++ (81% to 100% inhibition at 250 micromolar)	+++ (81% to 100% inhibition at 250 micromolar)
N=C(N)NCCC(=O)N[C@H]1C(O)O[C@H](COCc2ccc(Br)cc2)[C@@H](O)[C@@H]1OCc1ccc(C(=O)O)cc1 (single isomer, unassigned) [Compound 63]	++ (61% to 80% inhibition at 250 micromolar)	+++ (81% to 100% inhibition at 250 micromolar)	− (0% to 35% inhibition at 250 micromolar)
CCOC1OC(COCC(=O)O)C(O)C(OCc2ccccc2)C1NC(=O)CCN (single isomer, unassigned) [Compound 120]	+ (36% to 60% inhibition at 250 micromolar)	+ (36% to 60% inhibition at 250 micromolar)	− (0% to 35% inhibition at 250 micromolar)
COC1OC(COCC(=O)O)C(O)C(OCc2ccccc2)C1NC(=O)C1CCC(CN)CC1 (single isomer, unassigned) [Compound 137]	+++ (81% to 100% inhibition at 250 micromolar)	+++ (81% to 100% inhibition at 250 micromolar)	++ (61% to 80% inhibition at 250 micromolar)
Nc1cccc(COC2C(O)C(COCc3ccccc3)OC(O)C2NC(=O)CCC(=O)O)c1 (single isomer, unassigned) [Compound 23]	++ (61% to 80% inhibition at 250 micromolar)	+++ (81% to 100% inhibition at 250 micromolar)	− (0% to 35% inhibition at 250 micromolar)
Nc1cccc(COC2C(NC(=O)c3ccc(Cl)cc3)COC(COCC(=O)O)C2O)c1 (centres unmarked) [Compound 80]	++ (61% to 80% inhibition at 250 micromolar)	+++ (81% to 100% inhibition at 250 micromolar)	+ (36% to 60% inhibition at 250 micromolar)
COCC1OC(OCc2ccccc2)C(NC(=O)CCNC(=N)N)C(OCC(=O)O)C1O (single isomer, unassigned) [Compound 90]	− (0% to 35% inhibition at 250 micromolar)	+++ (81% to 100% inhibition at 250 micromolar)	− (0% to 35% inhibition at 250 micromolar)
COC1OC(COCC(=O)O)C(O)C(OCc2ccccc2)C1NC(=O)c1ccc(CN)cc1 (single isomer, unassigned) [Compound 127]	− (0% to 35% inhibition at 250 micromolar)	− (0% to 35% inhibition at 250 micromolar)	− (0% to 35% inhibition at 250 micromolar)
CCOC1C(O)C(COCC(=O)O)OC(OCc2ccccc2)C1NC(=O)c1cccc(N)c1 (single isomer, unassigned) [Compound 85]	− (0% to 35% inhibition at 250 micromolar)	+++ (81% to 100% inhibition at 250 micromolar)	− (0% to 35% inhibition at 250 micromolar)
CCOC1OC(COCc2ccc(C(=O)O)cc2)C(O)C(OCc2cccc(N)c2)C1NC(=O)c1ccc(Cl)cc1 (single isomer, unassigned) [Compound 78]	− (0% to 35% inhibition at 250 micromolar)	+++ (81% to 100% inhibition at 250 micromolar)	+++ (81% to 100% inhibition at 250 micromolar)
